Data published in patent US10463747B2, “Method of developing a vaccine using peptide-poly IC complexes” (H. Lee Moffitt Cancer Center and Research Institute, Inc., priority 2011, dated 2019).
Where no end group is shown, it is not given here.

Assays:
[1] = system: CD8 T cell responses of peptide epitope Trp1455/9M (TAPDNLGYM); test: Tetramer analysis of CD8 T cell responses after i.v. prime-boost vaccination with modified Trp1 peptide mixed with Poly-IC; format: in vivo, mice; details: for immunogenicity of peptide epitope (CD8 T cell response, tetramer analysis): i.v. prime-boost 2 weeks apart, blood 7 days after boost; for immunogenicity of peptide epitope compared with hepta-arginine (R)7 tail: three-arginine tail, FIG. 2
Experimental: CD8 T cell responses of peptide epitope Trp1455/9M (TAPDNLGYM) (SEQ ID NO:2) containing 3 types of tails with charged amino acids (R, K or E) and a short linker (MFV) (SEQ ID NO:3) were measured by tetramer analysis after i.v. prime-boost (2 weeks apart) vaccination using 120 μg peptide mixed with 50 μg Poly-IC. These sequences correspond to (R)7-MFV-TAPDNLGYM (SEQ ID NO:4); (K)7-MFV-TAPDNLGYM (SEQ ID NO:5); and (E)7-MFV-TAPDNLGYM (SEQ ID NO:6) respectively. Immune responses in 3 individual mice measured 7 days after the boost in blood samples. Numbers below the rectangular gates correspond to the % tetramer positive (antigen-specific) cells of the total CD8 T cell population.
The sequence for the three-arginine tail is (R)3-MFVTAPDNLGYM (SEQ ID NO:7).
CD8 T cell responses of peptide epitope Trp1455/9M (TAPDNLGYM) (SEQ ID NO:2) containing 2 types of hydrophobic tails (LMFVMFV-TAPDNLGYM (SEQ ID NO:10) and (Pam)2KMFV-TAPDNLGYM (SEQ ID NO:11)) at the amino terminus end were measured by tetramer analysis after i.v. prime-boost (2 weeks apart) vaccination using peptide mixed with 50 μg Poly-IC. Immune responses in 3 individual mice measured 7 days after the boost in blood samples. Numbers below the rectangular gates correspond to the % tetramer positive (antigen-specific) cells of the total CD8 T cell population.
(§1) Comparison of CD8 T cell responses of peptide epitope (pam)2Trp455/9M [(Pam)2KMFV-TAPDNLGYM] (SEQ ID NO:11) injected together with 50 μg Poly-IC (top panels) or 3.5 hours after the Poly-IC (bottom panels). Immune response in 3 individual mice measured 7 days after an identical boost (12 days apart) in blood samples. Numbers below the rectangular gates correspond to the % tetramer positive (antigen-specific) cells of the total CD8 T cell population.

MHC molecule = target: T1, MHC molecule (Mus musculus, UniProt P01899); details: arginine to alanine substitution at position 1; cited from earlier work
T1 sequence (P01899 25-362): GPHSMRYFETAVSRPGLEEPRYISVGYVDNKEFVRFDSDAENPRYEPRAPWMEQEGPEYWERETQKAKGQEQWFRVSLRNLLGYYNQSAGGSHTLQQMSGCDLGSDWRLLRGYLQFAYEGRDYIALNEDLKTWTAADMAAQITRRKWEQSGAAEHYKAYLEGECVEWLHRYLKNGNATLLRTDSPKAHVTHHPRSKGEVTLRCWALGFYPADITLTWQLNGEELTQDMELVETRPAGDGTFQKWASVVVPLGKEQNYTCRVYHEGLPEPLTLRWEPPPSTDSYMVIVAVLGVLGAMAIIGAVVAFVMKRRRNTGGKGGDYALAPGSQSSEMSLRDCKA
T1 sequence (P01887 21-119 partner): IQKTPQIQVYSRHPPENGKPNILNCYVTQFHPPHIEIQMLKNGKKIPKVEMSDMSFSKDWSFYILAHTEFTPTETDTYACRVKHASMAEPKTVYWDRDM

[2] = system: CD8 T cell responses of peptide epitope HPV16-E749 (RAHYNIVTF); test: Tetramer analysis of CD8 T cell responses after i.v. prime-boost vaccination with HPV16-E7 peptide mixed with Poly-IC; format: in vivo, mice; details: for immunogenicity of peptide epitope (CD8 T cell response, tetramer analysis): i.v. prime-boost 2 weeks apart, 30 μg peptide mixed with 50 μg Poly-IC, blood 7 days after boost
Experimental: CD8 T cell responses of peptide epitope HPV16-E749 (RAHYNIVTF) (SEQ ID NO:8) and HPV16-E749/1A (AAHYNIVTF) (SEQ ID NO:9) measured by tetramer analysis after i.v. prime-boost (2 weeks apart) vaccination using 30 μg peptide mixed with 50 μg Poly-IC. Immune responses in 3 individual mice measured 7 days after the boost in blood samples. Numbers below the oval gates correspond to the % tetramer positive (antigen-specific) cells of the total CD8 T cell population.
as §1, with “epitope HPV16-E749 (RAHYNIVTF)” for “epitope (pam)2Trp455/9M [(Pam)2KMFV-TAPDNLGYM]”, “ID NO:8)” for “ID NO:11)”, “or 5” for “or 3.5”, “Immune responses” for “Immune response”, “the oval” for “the rectangular”

[3] = system: antigen-specific CD8 T lymphocytes; test: Immunogenicity of modified peptides with immune adjuvants (general observations, adjuvant type and timing); details: in vivo
Experimental: Arginine-containing peptides and the hydrophobic peptides are highly immunogenic when administered together with Poly-IC because they are able to form complexes. This is supported by the observations that if the Poly-IC is injected intravenously (i.v) 3.5 to 5 hr before the peptide (also i.v.), then the immune responses are dramatically lower as compared to circumstances when both peptide and Poly-IC are administered together (FIGS. 7 and 8).
The inventors are developing assays that measure the formation of these complexes. The data has been observed with Poly-IC, which is both a TLR3 agonist and ligand for RIG-1 like receptors, or cytoplasmic helicases.
There are examples of antigens (proteins or peptides) that are conjugated to antibodies specific for cell surface molecules expressed on antigen-presenting cells in order to specifically target the antigens to these cells to generate immune responses. […] This is likely due to the antibodies, while targeting the antigen to the appropriate antigen-presenting cell, are not sufficiently stimulatory to activate the cell to become optimal to stimulate the T cell responses. In addition, the ODN-CpG-peptide complexes are not captured as efficiently due to their relatively small size, as compared to the peptide-poly-IC complexes, by the scavenger receptors on the antigen-presenting cells. […]

[4] = 50 μg Poly-IC, 7 days after identical boost (12 days apart), blood
[5] = hydrophobic tail at amino terminus, peptide mixed with 50 μg Poly-IC

(Pam)2KMFV-TAPDNLGYM (KMFVTAPDNLGYM; not fully specified (residue 1); printed as (Pam)2KMFV-TAPDNLGYM)
immune response, peptide injected together with Poly-IC versus 3.5 hours after the Poly-IC [1, 4]: stronger immune responses
immunogenicity of peptide epitope (CD8 T cell response, tetramer analysis) [1, 5]: increase the immunogenicity

(R)3-MFVTAPDNLGYM (RRRMFVTAPDNLGYM; 3 arginine tail epitope Trp1 455/9m)
immunogenicity of peptide epitope compared with hepta-arginine (R)7 tail [1]: increases immunogenicity of a peptide epitope similar to the results obtained from a hepta-arginine (R)7 tail
immunogenicity of peptide epitope compared with hepta-arginine (R)7 tail ([1]; listed as (R)3): function as well as peptides with seven arginines (R)7

(R)7-MFV-TAPDNLGYM (RRRRRRRMFVTAPDNLGYM; 7 arginine tail epitope Trp1 455/9m)
immunogenicity of peptide epitope (CD8 T cell response, tetramer analysis) ([1]; charged amino acid tail + MFV linker, 120 μg peptide mixed with 50 μg Poly-IC): increases the immunogenicity
immunogenicity of peptide epitope (CD8 T cell response, tetramer analysis) ([1]; charged amino acid tail + MFV linker, 120 μg peptide mixed with 50 μg Poly-IC, listed as R7): function as good immunogens

AAHYNIVTF (peptide epitope hpv16-e7 49/1a) [HPV16-E749/1A]
capacity of the peptide to bind to the MHC molecule and be recognized by T cells (MHC molecule): does not interfere with the capacity of the peptide to bind to the MHC molecule and be recognized by T cells
immunogenicity of peptide epitope (CD8 T cell response, tetramer analysis) [2]: reduces its immunogenicity
immunogenicity of peptide epitope (CD8 T cell response, tetramer analysis) ([2]; listed as AAHYNIVTF): reduced dramatically the immunogenicity

LMFVMFV-TAPDNLGYM (LMFVMFVTAPDNLGYM; peptide epitope Trp1 455/9m with hydrophobic tail)
immunogenicity of peptide epitope (CD8 T cell response, tetramer analysis) [1, 5]: increase the immunogenicity

RAHYNIVTF (peptide epitope hpv16-e7 49) [HPV16-E749]
immune response, peptide injected together with Poly-IC versus 5 hours after the Poly-IC [2, 4]: stronger immune responses
immunogenicity of peptide epitope (CD8 T cell response, tetramer analysis) [2]: more immunogenic than AAHYNIVTF

polyinosinic:polycytidylic acid [poly-IC]
effect on immune responses of injection prior to the injection of peptide-poly-IC complexes [3]: inhibition of the immune responses
generation of secondary (booster) immune responses by adjuvant [3]: very potent
